From patent US20210017607A1, “Methods of Predicting Responsiveness to Cancer Therapies” (The University of Chicago, priority 2019, published 2021) come the findings set out here.

The test system of assay [1] is Myc-CAP (STING^lo) cells. The assay can be described thus: p-γH2AX foci (DNA DSBs) by confocal microscopy. In kind it is cell-based, mouse. The text has this:
(§1) FIGS. 29A-29M. PARPi alone induces DNA DSBs, but not apoptosis even in combination with PI3Ki in Myc-CAP (STING^lo) cancer cells; PARPi/PI3Ki combination induces intracellular DNA DSBs and proportionate release of MV surface-associated DNA DSBs from B6-Myc (STINGhi) cancer cells without affecting cellular viability; PARPi/PI3K treatment activates tumor-cell extrinsic cGAS/STING pathway within TAMs in vivo via MV surface-associated DNA DSBs released from tumor cells. Myc-CAP cancer cells were treated with the indicated drugs singly or in combination for 36 hours. (29A) Cells were stained with anti-mouse specific p-γH2AX antibody and a fluorescently labeled secondary antibody for determination of DNA DSBs, which were quantified by confocal microscopy. (29B) Protein extracts from cells in 29A were analyzed for the indicated pharmacodynamic biomarkers by western blotting; (29C) Annexin V-PI staining was done to assess frequency of live cells (Annexin V^− PI^−) following drug treatment. (29D) Ultracentrifugation was utilized to purify microvesicles (MVs) from supernatants in treatment groups in (29A) and associated DNA DSBs was quantified by Nanodrop®. Independent experiments n=2. (29E) Ultracentrifugation was utilized to purify MVs from supernatants in indicated treatment groups in FIG. 17A, and associated DNA DSBs were quantified by Nanodrop®; n=2 independent experiments. […]

Assay [2] deals with Myc-CAP (STING^lo) cells. In words: Annexin V-PI viability assay. In kind it is cell-based, mouse. The conditions noted are these: rucaparib 500 nM, buparlisib 1 μM, singly and in combination.
Text: as §1

As for `Nc1cc(C(F)(F)F)c(-c2cc(N3CCOCC3)nc(N3CCOCC3)n2)cn1` [buparlisib], the “DNA damage on addition to rucaparib, relative to rucaparib alone” value in the assay with Myc-CAP (STING^lo) cells [1] is “did not further increase DNA damage”. In addition, the viability of cells result with Myc-CAP (STING^lo) cells [2] is recorded as “no change in the viability”.

Take `CNCc1ccc(-c2[nH]c3cc(F)cc4c3c2CCNC4=O)cc1` [rucaparib]: in the assay on Myc-CAP (STING^lo) cells [1] (36 hours), the “DNA DSBs (number of p-γH2AX foci)” value was “increase in DNA DSBs”. The viability of cells entry with Myc-CAP (STING^lo) cells [2] is given as “no change in the viability”.
